Structures are written as SMILES. Like-named read-outs stand apart in the source and are kept apart here.

As usually defined, the AUC is the area under the concentration-time curve, a measure of exposure. Low values mean low exposure, high ones high exposure. Usually Cmax stands for the highest concentration seen after dosing.

The conditions of data set [1]: every fourth day schedule; limited by confusion and insomnia; cited from earlier work.
The conditions of data set [2]: cited from earlier work.
The test system of data set [3] is B16F10 melanoma. Kind of data set: B16F10 melanoma tumor growth in obese (DIO) and lean mice. In kind it is in vivo, C57BL/6 male mice. The note with it: 2 mg/kg SC Q2D. From the text: The study would compare weight changes in both obese and lean animal groups; measure biologic changes in hematology parameters; and compare conjugate molecules of the present disclosure against related small molecules for efficacy.
(§1) C57BL/6 male mice were ad libitum fed TD.06414 a high fat diet (HFD) composed of 60% Kcal from fat (DIO) for 12-14 weeks, until average body weight of the obese mice was >40 g. Age-matched C57Bl/6 male mice were maintained on a normal rodent diet (10% fat, low-fat diet, LFD) for 12-14 weeks. The study was initiated by injecting 2×10^5 B16F10 melanoma cells into the flank of both lean and obese animals.
(§2) The mice were treated with 5% mannitol/water (vehicle control), Compound 1 or Compound 4 once tumors had reached >100 mm^3. Treatment was via subcutaneous, intra-scapular injection at 5 ml/kg every four days (compound 1) or every 2 days (compound 4) over a 17 day period at the doses and on the schedule shown in Table 2.

Data set [4] can be described thus: Adipose tissue mass in mice bearing B16F10 melanoma. It counts as in vivo, C57BL/6 male mice. The settings on record: 2 mg/kg. The method, then: as §1
Treatment was via subcutaneous, intra-scapular injection at 5 ml/kg every four days (compound 1) or every 2 days (compound 4) over a 17 day period at the doses and on the schedule shown in Table 2.

The conditions of data set [5]: SD rats; 5 mg/kg/day (Kim et al.); cited from earlier work.
Data set [6] concerns B16F10 melanoma. Briefly: Metastatic lung lesions in B16F10 melanoma/DIO mice. It counts as in vivo, C57BL/6 male mice. The settings on record: Obese Mice; 2 mg/kg. The method, then:
as §1, §2

Data set [7] in a line: Body weight of B16F10 tumor-bearing obese and lean mice. It counts as in vivo, C57BL/6 male mice. The note with it: 2 mg/kg SC Q2D. The method, then: as §1, §2
For a further data set, the system named is CYP3A 4 & 5. Briefly: CYP3A4/5 substrate status. In kind it is in vitro ADME.
The nature of a further data set: NOAEL in dog. The note with it: in vivo, after 0.5 mg/kg COMPOUND 1.
Another data set is described as follows: NOAEL in rat. The settings on record: in vivo, after 3 mg/kg COMPOUND 1.
The conditions of data set [8]: in combination with paclitaxel; dosed three times per week; cited from earlier work.

On to `COC1C(OC(=O)/C=C/c2ccc(OCCN(C)C)cc2)CC[C@]2(CO2)C1[C@@]1(C)O[C@@H]1CC=C(C)C` (stereo partly drawn) [Compound 4], for which, in data set [1], the MTD is 15 mg/m2/day. Further, the body weight effect result in data set [2] (C57BL/6J mice, 5 mg/kg/day (Kim et al.)) is recorded as “weight loss”; in data set [2] (DIO mice, dosed at 1 mg/kg (Hughes et al.)) it was “efficacious in eliciting weight loss”; in [5], “weight loss”. In the data set with B16F10 melanoma [3] (lean mice), the “effect on tumor growth” value is on record as “no effect on tumor growth”. For the same compound, in the data set on B16F10 melanoma [3] (obese mice), the “inhibition of growth of tumors” value turned out to be 28%. Also, the “Tissue Weight, Epididymal Fat” value in data set [4] (Lean Mice) was 0.134 g; in data set [4] (Obese Mice), 0.424 g. Moreover, the “Tissue Weight, Inguinal Fat” value was determined as 0.208 g in data set [4] (Lean Mice) and 0.416 g in data set [4] (Obese Mice). The figures for the “Tissue Weight, Retroperitoneal Fat” value in [4] (Lean Mice) and in data set [4] (Obese Mice) were 0.029 g and 0.142 g, respectively. In addition, the “number of metastatic lung lesions, mean +/- SEM” value in the data set with B16F10 melanoma [6] was 2.4+/−0.8 lesions/mouse. Also, the “effect on body weight” value in data set [7] (lean mice) was “no effect on body weight”. In addition, the “change in body weight” value in [7] (obese mice) is given as −7.9%.
`COC1C(OC(=O)N[C@H]2CC[C@H](N)CC2)CC[C@]2(CO2)C1[C@@]1(C)O[C@@H]1CC=C(C)C` (stereo partly drawn) [Compound 5]: in the data set on CYP3A 4 & 5, the “CYP3A 4 & 5 substrate” value is listed as “substrate”. Moreover, the area under the curve (AUC) in the data set “NOAEL in dog” came to 20.7 ng·h/mL; in the data set “NOAEL in rat” it was 23.3 ng·h/mL. Besides, the figures for the Cmax in “NOAEL in dog” and in “NOAEL in rat” were 0.4 ng/mL and 1.5 ng/mL, respectively.
As for `CO[C@@H]1[C@H](OC(=O)/C=C/C=C/C=C/C=C/C(=O)O)CC[C@]2(CO2)[C@H]1[C@@]1(C)O[C@@H]1CC=C(C)C` [fumagillin], in data set [2] (C57BL/6 mice, oral 1 mg/kg daily (Lijnen et al.)), the body weight effect entry is on record as “weight loss”.
With `CO[C@@H]1[C@H](OC(=O)NC(=O)CCl)CC[C@]2(CO2)[C@H]1[C@@]1(C)O[C@@H]1CC=C(C)C` [TNP-470, chloroacetylcarbamoylfumagillol], the MTD in data set [8] was 60 mg/m2. For the same compound, the obesity prevention result in data set [2] (mice, 15 or 20 mg/kg every other day (Brakenhielm)) was “prevention of obesity”. For the same compound, in data set [2] (ob/ob mice, daily doses 2.5 mg/kg to 10 mg/kg (Rupnick et al.)), the body weight effect result was “weight loss”.
